From ChEMBL document CHEMBL1221314, “Potential anti-inflammatory phenolic glycosides from the medicinal plant Moringa oleifera fruits” (Bioorg Med Chem, 2010)

How the values were obtained:
[1] = system: RAW264.7; test: Antiinflammatory activity in mouse RAW264.7 cells assessed as inhibition of LPS-induced NO production incubated 30 mins prior to LPS challenge; assay type: functional, cell-based
[2] = system: RAW264.7; test: Cytotoxicity against mouse RAW264.7 cells after 24 hrs by SRB assay; assay type: cell-based; conditions: raw264.7, 24 h
[3] = system: RAW264.7; test: Antiinflammatory activity in mouse RAW264.7 cells assessed as inhibition of LPS-induced iNOS expression incubated 30 mins prior to LPS challenge by Western blotting; assay type: functional, cell-based
[4] = system: RAW264.7; test: Antiinflammatory activity in mouse RAW264.7 cells assessed as inhibition of LPS-induced NO production at 5 uM incubated 30 mins prior to LPS challenge; assay type: functional

CC(=O)O[C@H]1[C@H](Oc2ccc(CN=C=S)cc2)O[C@@H](C)[C@H](O)[C@H]1O
IC50 [1]: 1.67 µM
Activity [2]: Non-toxic
Activity [3]: Dose-dependent effect

C[C@@H]1O[C@@H](Oc2ccc(CC#N)cc2)[C@H](O)[C@H](O)[C@H]1O [NIAZIRIN]
inhibition at 5 µM [4]: < 1%
IC50 [1]: > 45 µM

CSC(=O)NCc1ccc(O[C@@H]2O[C@@H](C)[C@H](O)[C@@H](O)[C@H]2O)cc1
inhibition at 5 µM [4]: 24.3%
IC50 [1]: > 45 µM

CC(=O)O[C@@H]1[C@@H](O)[C@H](C)O[C@@H](Oc2ccc(CN=C=S)cc2)[C@@H]1O
IC50 [1]: 2.66 µM
Activity [2]: Non-toxic
Activity [3]: Dose-dependent effect

COC(=S)NCc1ccc(O[C@@H]2O[C@@H](C)[C@H](O)[C@@H](O)[C@H]2O)cc1 [NIAZININ A]
inhibition at 5 µM [4]: < 1%
IC50 [1]: > 45 µM

C[C@@H]1O[C@@H](Oc2ccc(CN=C=S)cc2)[C@H](O)[C@H](O)[C@H]1O
IC50 [1]: 14.4 µM
Activity [3]: Dose-dependent effect

CC(=O)O[C@@H]1[C@@H](O)[C@@H](O)[C@H](Oc2ccc(CN=C=S)cc2)O[C@H]1C
IC50 [1]: 2.71 µM
Activity [2]: Non-toxic
Activity [3]: Dose-dependent effect

CNC(=N)NCCC[C@H](N)C(=O)O
IC50 [1]: 25.5 µM

COC(=S)NCc1ccc(O[C@@H]2O[C@@H](C)[C@H](OC(C)=O)[C@@H](O)[C@H]2O)cc1 [NIAZICIN A]
inhibition at 5 µM [4]: 17.3%
IC50 [1]: > 45 µM
